This is an account of results in patent US12344597B2, “Alkoxy-substituted pyridinyl derivatives as LPA1 receptor antagonists and their use in the treatment of fibrosis” (IDORSIA PHARMACEUTICALS LTD, priority 2018, dated 2025).

Molecules are shown by their SMILES.

The target in the assay is human LPA1 receptor (Homo sapiens (Human), UniProt Q92633). The experiment in a line: Beta-arrestin recruitment assay to determine IC50 values for human LPAR1. The class given is cell-based. The following applies: antagonist mode, Tango EDG2-bla U2OS cells, LPA 18:1 500 nM final. Put shortly: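 Tango EDG2-bla U2OS cells: LPA-driven beta-arrestin/TEV protease recruitment releases Gal4-VP16, inducing beta-lactamase reporter read with live-cell substrate. Cells seeded 20 h at 37 °C beforehand. IC50 is antagonist concentration inhibiting 50% of maximal response.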
Sequence of human LPA1 receptor (Q92633 whole entry, the tested form may be a part): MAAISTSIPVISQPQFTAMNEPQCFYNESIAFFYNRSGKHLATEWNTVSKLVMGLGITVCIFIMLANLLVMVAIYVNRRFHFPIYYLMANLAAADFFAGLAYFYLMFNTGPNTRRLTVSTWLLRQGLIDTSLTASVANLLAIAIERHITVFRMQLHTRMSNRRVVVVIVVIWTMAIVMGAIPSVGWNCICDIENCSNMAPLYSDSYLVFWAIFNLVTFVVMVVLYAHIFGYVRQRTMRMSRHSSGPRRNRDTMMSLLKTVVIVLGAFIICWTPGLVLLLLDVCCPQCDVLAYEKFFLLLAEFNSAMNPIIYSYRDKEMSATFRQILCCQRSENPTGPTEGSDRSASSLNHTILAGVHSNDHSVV

On to `Cc1ccc(NC(=O)C2(c3ccccc3C(C)C)CCN(C(=O)CNCCO)CC2)c(OC(F)F)n1` [Ex 12-50, N-(2-(difluoromethoxy)-6-methylpyridin-3-yl)-1-((2-hydroxyethyl)glycyl)-4-(2-isopropylphenyl)piperidine-4-carboxamide], for which the IC50 was 9 nM.
Regarding `Cc1ccc(NC(=O)C2(c3ccccc3C(C)C)CN(C(=O)CCOCCOCCO)C2)c(OC(F)F)n1` [Ex 12-51, N-(2-(difluoromethoxy)-6-methylpyridin-3-yl)-1-(3-(2-(2-hydroxyethoxy)ethoxy)propanoyl)-3-(2-isopropylphenyl)azetidine-3-carboxamide], it took 360 nM to reach half-maximal inhibition (IC50).
In the case of `Cc1ccc(NC(=O)C2(c3ccccc3C(C)C)CN(C(=O)CN3CC(O)C3)C2)c(OC(F)F)n1` [Ex 12-53, N-(2-(difluoromethoxy)-6-methylpyridin-3-yl)-1-(2-(3-hydroxyazetidin-1-yl)acetyl)-3-(2-isopropylphenyl)azetidine-3-carboxamide], inhibition was half-maximal at 17 nM (IC50).
As to `COCCNCC(=O)N1CC(C(=O)Nc2ccc(C)nc2OC(F)F)(c2ccccc2C(C)C)C1` [Ex 12-54, N-(2-(difluoromethoxy)-6-methylpyridin-3-yl)-3-(2-isopropylphenyl)-1-((2-methoxyethyl)glycyl)azetidine-3-carboxamide], the IC50 came to 10 nM.
Then `Cc1ccc(NC(=O)C2(c3ccccc3C(C)C)CN(C(=O)CNC[C@@H](C)O)C2)c(OC(F)F)n1` [Ex 12-55, (R)-N-(2-(difluoromethoxy)-6-methylpyridin-3-yl)-1-((R)-(2-hydroxypropyl)glycyl)-3-(2-isopropylphenyl)azetidine-3-carboxamide], with 3 nM; and `Cc1ccc(NC(=O)C2(c3ccccc3C(C)C)CN(C(=O)CNC[C@H](C)O)C2)c(OC(F)F)n1` [Ex 12-56, (S)-N-(2-(difluoromethoxy)-6-methylpyridin-3-yl)-1-((S)-(2-hydroxypropyl)glycyl)-3-(2-isopropylphenyl)azetidine-3-carboxamide], with 7 nM; and `Cc1ccc(NC(=O)C2(c3ccccc3C(C)C)CN(C(=O)CNCC3(O)CC3)C2)c(OC(F)F)n1` [Ex 12-57, N-(2-(difluoromethoxy)-6-methylpyridin-3-yl)-1-(((1-hydroxycyclopropyl)methyl)glycyl)-3-(2-isopropylphenyl)azetidine-3-carboxamide], with 17 nM.
Regarding `Cc1ccc(NC(=O)C2(c3ccccc3C(C)C)CN(C(=O)CN[C@H](C)CO)C2)c(OC(F)F)n1` [Ex 12-58, (R)-N-(2-(difluoromethoxy)-6-methylpyridin-3-yl)-1-((R)-(1-hydroxypropan-2-yl)glycyl)-3-(2-isopropylphenyl)azetidine-3-carboxamide], the IC50 was found to be 10 nM.
Turning to `Cc1ccc(NC(=O)C2(c3ccccc3C(C)C)CN(C(=O)CN[C@@H](C)CO)C2)c(OC(F)F)n1` [Ex 12-59, (S)-N-(2-(difluoromethoxy)-6-methylpyridin-3-yl)-1-((R)-(1-hydroxypropan-2-yl)glycyl)-3-(2-isopropylphenyl)azetidine-3-carboxamide], the IC50 is 10 nM.
In the case of `Cc1ccc(NC(=O)C2(c3ccccc3C(C)C)CN(C(=O)CCNCCO)C2)c(OC(F)F)n1` [Ex 12-60, N-(2-(difluoromethoxy)-6-methylpyridin-3-yl)-1-(3-((2-hydroxyethyl)amino)propanoyl)-3-(2-isopropylphenyl)azetidine-3-carboxamide] it was 58 nM.
Regarding `COC(=O)CCC(=O)N1CC(C(=O)Nc2ccc(C)nc2OC)(c2ccccc2C(C)C)C1` [Ex 12-61, Methyl 4-(3-(2-isopropylphenyl)-3-((2-methoxy-6-methylpyridin-3-yl)carbamoyl)azetidin-1-yl)-4-oxobutanoate], the IC50 came to 276 nM.
In turn, `COc1nc(C)ccc1NC(=O)C1(c2ccccc2C(C)C)CN(C(=O)CCC(=O)O)C1` [Ex 12-62, 4-(3-(2-isopropylphenyl)-3-((2-methoxy-6-methylpyridin-3-yl)carbamoyl)azetidin-1-yl)-4-oxobutanoic acid] gave an IC50 of 65 nM.
`Cc1ccc(NC(=O)C2(c3ccccc3C(C)C)CN(C(=O)C3(C(=O)O)CC3)C2)c(OC(F)F)n1` [Ex 12-64, 1-(3-((2-(difluoromethoxy)-6-methylpyridin-3-yl)carbamoyl)-3-(2-isopropylphenyl)azetidine-1-carbonyl)cyclopropane-1-carboxylic acid]: the concentration for half-maximal inhibition (IC50) was determined as 19 nM.
In the case of `CCOC(=O)CC(=O)N1CCC(C(=O)Nc2ccc(C)nc2OC(F)F)(c2ccccc2C(C)C)CC1` [Ex 12-65, ethyl-3-(4-((2-(difluoromethoxy)-6-methylpyridin-3-yl)carbamoyl)-4-(2-isopropylphenyl)piperidin-1-yl)-3-oxopropanoate] it was 3 nM; in that of `Cc1ccc(NC(=O)C2(c3ccccc3C(C)C)CCN(C(=O)CC(=O)O)CC2)c(OC(F)F)n1` [Ex 12-66, 3-(4-((2-(difluoromethoxy)-6-methylpyridin-3-yl)carbamoyl)-4-(2-isopropylphenyl)piperidin-1-yl)-3-oxopropanoic acid], 12 nM.
In the case of `COC(=O)CCC(=O)N1CC(C(=O)Nc2ccc(C)nc2OC(C)C)(c2ccccc2C(C)C)C1` [Ex 12-67, methyl 4-(3-((2-isopropoxy-6-methylpyridin-3-yl)carbamoyl)-3-(2-isopropylphenyl)azetidin-1-yl)-4-oxobutanoate] it was 75 nM; in that of `Cc1ccc(NC(=O)C2(c3ccccc3C(C)C)CN(C(=O)CCC(=O)O)C2)c(OC(C)C)n1` [Ex 12-68, 4-(3-((2-isopropoxy-6-methylpyridin-3-yl)carbamoyl)-3-(2-isopropylphenyl)azetidin-1-yl)-4-oxobutanoic acid], 33 nM; in that of `COC(=O)CCC(=O)N1CC(C(=O)Nc2ccc(Cl)nc2OC)(c2ccccc2C(C)C)C1` [Ex 12-69, methyl 4-(3-((6-chloro-2-methoxypyridin-3-yl)carbamoyl)-3-(2-isopropylphenyl)azetidin-1-yl)-4-oxobutanoate], 230 nM.
Molecule `COc1nc(Cl)ccc1NC(=O)C1(c2ccccc2C(C)C)CN(C(=O)CCC(=O)O)C1` [Ex 12-70, 4-(3-((6-chloro-2-methoxypyridin-3-yl)carbamoyl)-3-(2-isopropylphenyl)azetidin-1-yl)-4-oxobutanoic acid] displayed an IC50 of 60 nM.
Turning to `Cc1ccc(NC(=O)C2(c3ccccc3C(C)C)CN(C(=O)CCC(=O)O)C2)c(OC(F)F)n1` [Ex 12-71, 4-(3-((2-(difluoromethoxy)-6-methylpyridin-3-yl)carbamoyl)-3-(2-isopropylphenyl)azetidin-1-yl)-4-oxobutanoic acid], half-maximal inhibition (IC50) required 10 nM.
Regarding `COC(=O)CCC(=O)N1CCC(C(=O)Nc2ccc(C)nc2OC(F)F)(c2ccccc2C(C)C)CC1` [Ex 12-72, methyl 4-(4-((2-(difluoromethoxy)-6-methylpyridin-3-yl)carbamoyl)-4-(2-isopropylphenyl)piperidin-1-yl)-4-oxobutanoate], the IC50 turned out to be 4 nM.
`CCOC(=O)/C=C/C(=O)N1CC(C(=O)Nc2ccc(C)nc2OC(F)F)(c2ccccc2C(C)C)C1` [Ex 12-74, ethyl (E)-4-(3-((2-(difluoromethoxy)-6-methylpyridin-3-yl)carbamoyl)-3-(2-isopropylphenyl)azetidin-1-yl)-4-oxobut-2-enoate] displayed a half-inhibitory concentration (IC50) of 97 nM.
In the case of `Cc1ccc(NC(=O)C2(c3ccccc3C(C)C)CN(C(=O)/C=C/C(=O)O)C2)c(OC(F)F)n1` [Ex 12-75, (E)-4-(3-((2-(difluoromethoxy)-6-methylpyridin-3-yl)carbamoyl)-3-(2-isopropylphenyl)azetidin-1-yl)-4-oxobut-2-enoic acid] it was 50 nM; in that of `CCOC(=O)/C=C\C(=O)N1CC(C(=O)Nc2ccc(C)nc2OC(F)F)(c2ccccc2C(C)C)C1` [Ex 12-76, ethyl (Z)-4-(3-((2-(difluoromethoxy)-6-methylpyridin-3-yl)carbamoyl)-3-(2-isopropylphenyl)azetidin-1-yl)-4-oxobut-2-enoate], 7 nM; in that of `Cc1ccc(NC(=O)C2(c3ccccc3C(C)C)CN(C(=O)/C=C\C(=O)O)C2)c(OC(F)F)n1` [Ex 12-77, (Z)-4-(3-((2-(difluoromethoxy)-6-methylpyridin-3-yl)carbamoyl)-3-(2-isopropylphenyl)azetidin-1-yl)-4-oxobut-2-enoic acid], 31 nM.
`Cc1ccc(NC(=O)C2(c3ccccc3C(C)C)CN(C(=O)CC(C)C(=O)O)C2)c(OC(F)F)n1` (stereo not drawn) [Ex 12-78, 4-(3-((2-(difluoromethoxy)-6-methylpyridin-3-yl)carbamoyl)-3-(2-isopropylphenyl)azetidin-1-yl)-2-methyl-4-oxobutanoic acid] displayed an IC50 of 27 nM.
Consider `Cc1ccc(NC(=O)C2(c3ccccc3C(C)C)CN(C(=O)C[C@H](C)C(=O)O)C2)c(OC(F)F)n1` [Ex 12-79, (S)-4-(3-((2-(difluoromethoxy)-6-methylpyridin-3-yl)carbamoyl)-3-(2-isopropylphenyl)azetidin-1-yl)-2-methyl-4-oxobutanoic acid], for which half-maximal inhibition (IC50) required 15 nM.
With `Cc1ccc(NC(=O)C2(c3ccccc3C(C)C)CN(C(=O)C[C@@H](C)C(=O)O)C2)c(OC(F)F)n1` [Ex 12-80, (R)-4-(3-((2-(difluoromethoxy)-6-methylpyridin-3-yl)carbamoyl)-3-(2-isopropylphenyl)azetidin-1-yl)-2-methyl-4-oxobutanoic acid], the IC50 turned out to be 18 nM.
`COC(=O)C(C)(C)CC(=O)N1CC(C(=O)Nc2ccc(C)nc2OC(F)F)(c2ccccc2C(C)C)C1` [Ex 12-81, methyl 4-(3-((2-(difluoromethoxy)-6-methylpyridin-3-yl)carbamoyl)-3-(2-isopropylphenyl)azetidin-1-yl)-2,2-dimethyl-4-oxobutanoate] returned an IC50 of 34 nM.
Molecule `Cc1ccc(NC(=O)C2(c3ccccc3C(C)C)CCN(C(=O)CC(C)(C)C(=O)O)C2)c(OC(F)F)n1` (stereo not drawn) [Ex 12-83, 4-(3-((2-(difluoromethoxy)-6-methylpyridin-3-yl)carbamoyl)-3-(2-isopropylphenyl)pyrrolidin-1-yl)-2,2-dimethyl-4-oxobutanoic acid] gave an IC50 of 24 nM.
